The assay concerns Phospho-EGFR in H1975 cell line. Put plainly: HTRF Phospo EGFR Assay (Cellular). Type of assay: cell-based. To be noted: Homo sapiens, NCI-H1975; H1975 cells, 6 hours compound incubation in starving medium, HTRF phospho-EGFR readout. The protocol: HTRF Phospo EGFR Assay (Cellular)
H1975 cell line was obtained from American Type Culture Collection (Manassas, Va., USA). Cells were maintained at 37° C., 5% CO2 in complete Media RPMI 1640 without phenol red containing 0.3 mg/ml glutamine, 100 IU/ml penicillin, and […] (Gibco) supplemented with 10% fetal bovine serum (FBS) (Gibco). Compounds were diluted into starving medium RPMI 1640 Media without phenol red containing 0.3 mg/ml glutamine, 100 IU/ml penicillin, and […] (Gibco).
Cells were cultured overnight in a 384-well white plate (8000 cells/well) using 8 μl of complete medium/well. Cells were washed two times with 20 μl of starving medium. Media was removed by tapping plates on tissue and subsequently 8 μl of fresh starving medium/well was added. Then 4 μl/well of the 3× compound solution, containing a half-log dilution series of the compound or DMSO in starving medium, were added to the cells. After 6 hours at 37° C., 5% CO2 cells were lysed by adding to the compound mix 4 μl/well of the supplemented lysis buffer, followed by incubation for 30 min at room temperature with shaking. Lysates were stored at −20° C. over night. The following day plates were thawed and 2 μl of anti-Phospho-EGFR Cryptate and 2 μl of anti-Phospho-EGFR-d2 antibody solutions prepared in the detection buffer were added. The plates were then incubated for at least 4 h at room temperature before reading the fluorescence emission at 620 and 665 nm using PHERAstar FX plate reader (BMG Labtech).
(Time-resolved FRET reads energy transfer from a long-lived donor to a nearby acceptor.)

Among the data in patent publication US11708354B2, “2-benzopyrazinyl-n-heteroaryl-2-phenyl-acetamide compounds” (Hoffmann-La Roche Inc., priority 2016, dated 2023) are IC50 values, retold here.

Counter-ions that a name gives are not always drawn.

The term IC50 denotes the concentration that inhibits the measured activity by half. `O=C(Nc1ccccn1)C(c1ccccc1)n1cc2ccccc2n1` (racemic) [Example 1, (2RS)-2-Indazol-2-yl-2-phenyl-N-(2-pyridyl)acetamide]: half-maximal inhibition (IC50) was put at 1760 nM.

`O=C(Nc1nccs1)C(c1ccccc1)n1cc2ccccc2n1` (racemic) [Example 2, (2RS)-2-Indazol-2-yl-2-phenyl-N-thiazol-2-yl-acetamide]: the IC50 turned out to be 77 nM.

Compound `Nc1ccc2cn(C(C(=O)Nc3nccs3)c3ccccc3)nc2c1` (racemic) [Example 3, (2RS)-2-(6-Aminoindazol-2-yl)-2-phenyl-N-thiazol-2-yl-acetamide] came in with an IC50 of 499 nM.

As for `COc1ccc2cn(C(C(=O)Nc3nccs3)c3ccccc3)nc2c1` (racemic) [Example 4, (2RS)-2-(6-Methoxyindazol-2-yl)-2-phenyl-N-thiazol-2-yl-acetamide], the IC50 is 537 nM.

On to `O=C(Nc1nccs1)C(c1ccccc1)n1cc2ccc(O)cc2n1` (racemic) [Example 5, (2RS)-2-(6-Hydroxyindazol-2-yl)-2-phenyl-N-thiazol-2-yl-acetamide], for which half-maximal inhibition (IC50) was put at 199 nM.

For `O=C(Nc1nccs1)C(c1cc(F)ccc1O)n1cc2ccccc2n1` (racemic) [Example 6, (2RS)-2-(5-Fluoro-2-hydroxy-phenyl)-2-indazol-2-yl-N-thiazol-2-yl-acetamide], the IC50 came out at 57 nM.

`Nc1ccc(C#Cc2ccc3cn(C(C(=O)Nc4ccccn4)c4cc(F)ccc4O)nc3c2F)cn1` (racemic) [Example 7, (2RS)-2-[6-[2-(6-Amino-3-pyridyl)ethynyl]-7-fluoro-indazol-2-yl]-2-(5-fluoro-2-hydroxy-phenyl)-N-(2-pyridyl)acetamide] gave an IC50 of 7 nM.

The compound `O=C(Nc1nccs1)C(c1ccccc1)n1cc2ccc(-c3ccc(N4CCNCC4)nc3)c(Cl)c2n1` (racemic) [Example 8, (2RS)-2-[7-Chloro-6-(6-piperazin-1-yl-3-pyridyl)indazol-2-yl]-2-phenyl-N-thiazol-2-yl-acetamide] gave an IC50 of 32 nM.

The compound `O=C(Nc1ccccn1)C(c1ccccc1)n1cc2ccc(-c3ccc(N4CCNCC4)nc3)c(F)c2n1` (racemic) [Example 9, (2RS)-2-[7-Fluoro-6-(6-piperazin-1-yl-3-pyridyl)indazol-2-yl]-2-phenyl-N-(2-pyridyl)acetamide] yielded an IC50 of 127 nM.

`Nc1ccc(C#Cc2ccc3cn(C(C(=O)Nc4nccs4)c4ccccc4)nc3c2F)cn1` (racemic) [Example 11, (2RS)-2-[6-[2-(6-Amino-3-pyridyl)ethynyl]-7-fluoro-indazol-2-yl]-2-phenyl-N-thiazol-2-yl-acetamide]: the IC50 amounted to 52 nM.

Turning to `O=C(Nc1nccs1)C(c1ccccc1)n1cc2ccc(-c3ccc(N4CCNCC4)nc3)c(F)c2n1` (racemic) [Example 12, (2RS)-2-[7-Fluoro-6-(6-piperazin-1-yl-3-pyridyl)indazol-2-yl]-2-phenyl-N-thiazol-2-yl-acetamide hydrochloride], it took 31 nM to reach half-maximal inhibition (IC50). This IC50 is about 1.7-fold lower than that of the compound before.

With `CCN1CCN(c2ccc(-c3ccc4cn(C(C(=O)Nc5nccs5)c5cccc(F)c5)nc4c3)cn2)CC1` (racemic) [Example 13, (2RS)-2-[6-[6-(4-Ethylpiperazin-1-yl)-3-pyridyl]indazol-2-yl]-2-(3-fluorophenyl)-N-thiazol-2-yl-acetamide], the IC50 was 144 nM.

On to `O=C(Nc1nccs1)C(c1cccc(F)c1)n1cc2ccc(C#Cc3cccnc3)cc2n1` (racemic) [Example 14, (2RS)-2-(3-Fluorophenyl)-2-[6-[2-(3-pyridyl)ethynyl]indazol-2-yl]-N-thiazol-2-yl-acetamide], for which the IC50 was 22 nM.

In turn, `O=C(Nc1nccs1)C(c1cc(F)ccc1O)n1cc2cccc(Br)c2n1` (racemic) [Example 15, (2RS)-2-(7-Bromoindazol-2-yl)-2-(5-fluoro-2-hydroxy-phenyl)-N-thiazol-2-yl-acetamide] returned an IC50 of 1 nM.

Compound `O=C(Nc1nccs1)C(c1cc(F)ccc1O)n1cc2cccc(-c3ccccc3)c2n1` (racemic) [Example 16, (2RS)-2-(5-Fluoro-2-hydroxy-phenyl)-2-(7-phenylindazol-2-yl)-N-thiazol-2-yl-acetamide] returned an IC50 of 55 nM.

The compound `O=C(Nc1nccs1)C(c1cc(F)ccc1O)n1cc2cccc(N3CCOCC3)c2n1` (racemic) [Example 17, (2RS)-2-(5-Fluoro-2-hydroxy-phenyl)-2-(7-morpholinoindazol-2-yl)-N-thiazol-2-yl-acetamide] came in with an IC50 of 60 nM.

Consider `O=C(Nc1nccs1)C(c1cc(F)ccc1O)n1cc2ccc(Br)cc2n1` (racemic) [Example 18, (2RS)-2-(6-Bromoindazol-2-yl)-2-(5-fluoro-2-hydroxy-phenyl)-N-thiazol-2-yl-acetamide], for which the IC50 is 43 nM.

On to `O=C(Nc1nccs1)C(c1cc(F)ccc1O)n1cc2ccc(-c3ccccc3)cc2n1` (racemic) [Example 19, (2RS)-2-(5-Fluoro-2-hydroxy-phenyl)-2-(6-phenylindazol-2-yl)-N-thiazol-2-yl-acetamide], for which the IC50 was found to be 33 nM.

On to `O=C(Nc1nccs1)C(c1ccccc1)n1cc2ccc(-c3ccc(N4CCNCC4)nc3)cc2n1` (racemic) [Example 20, (2RS)-2-Phenyl-2-[6-(6-piperazin-1-yl-3-pyridyl)indazol-2-yl]-N-thiazol-2-yl-acetamide hydrochloride], for which 39 nM corresponded to half-maximal inhibition (IC50).
